Test results taken from patent publication US20120076776A1, “METHOD FOR TREATING INFLAMATION BY LYMPHOCYTE DEPLETION OR SEQUESTERING” (priority 2010, published 2012).

Legend:
renal transplant IRI = details: rat, in vivo; cited from earlier work
peripheral neutrophils = assay: Peripheral neutrophil counts during hemorrhage and reperfusion; assay type: in vivo, Yorkshire (Sus scrofa domestica) swine; details: FTY720 0.3 mg/kg; reperfusion period
Method: All functional laboratory assays were performed at 37° C., consistent with recorded normothermic animal temperatures (37.5±0.9° C.). Blood samples were collected at 0, 15, 30, 60, 90, and 120 minutes during the hemorrhage period and at 18, 24, 36, 48, and 72 hours during the survival period. Complete blood count with differentiation was performed with a cell counter (NDvia120 Hematology System, Siemens, Deerfield, Ill.).
Blood samples were collected at 0, 15, 30, 60, 90, and 120 minutes during the hemorrhage period and at 18, 24, 36, 48, and 72 hours during the survival period. Complete blood counts with differentiation were obtained using a cell counter (NDvia120 Hematology System, Siemens, Deerfield, Ill.).

[1] = system: central lymphocytes (CD3+); assay: CD3 immunohistochemistry of mesenteric lymph node and spleen at necropsy (ACIS); assay type: in vivo, Yorkshire (Sus scrofa domestica) swine; details: FTY720 0.3 mg/kg; both mesenteric lymph node and spleen at necropsy
Method: Immunohistochemical detection of CD3 was performed on sections of formalin fixed, paraffin embedded blocks of swine lymph node and spleen. Antigen retrieval was performed using Trilogy (Cell Marque, Rocklin, Calif.) for 30 minutes. Rat, anti-human CD3, monoclonal antibody (AbD Serotec, Raleigh, N.C.) was used at a dilution of 1:50 and incubated overnight at 4 C. Biotinylated goat anti-rat IgG specific polyclonal antibody (BD Biosciences, San Jose, Calif.) was applied as a secondary antibody at a 1:100 dilution for 30 minutes at room temperature. The chromogen applied was 3, 3′ Diaminobenzidine (DAKO, Carpenteria, Calif.) for 10 minutes. The sections were counterstained with Hematoxylin (DAKO, Carpenteria, Calif.). External negative controls were processed identically as CD3 but the primary antibody was substituted with normal rat serum. […] An Automated Cellular Imaging System (ACIS) was used to quantify the CD3 immunohistochemistry staining. By using the ACIS system, CD3 immunohistochemical staining could be specifically quantitated by determining how much brown (positive CD3 immunohistochemical reaction) was in the image compared to the amount of blue (hematoxylin nuclear counterstain).
Tissue slides were deparaffinized using xylene followed by graded baths of ethanol. […] An Automated Cellular Imaging System (ACIS) was used to quantify the CD3 immunohistochemistry staining. […]

[2] = system: experimental hemorrhagic shock induced by porcine liver injury; assay: Liver injury hemorrhagic shock model: survival, blood loss, hemodynamics; assay type: in vivo, Yorkshire (Sus scrofa domestica) swine; details: FTY720 0.3 mg/kg 15 min after liver injury
Method: Male and female 3-12 month Yorkshire (Sus scrofa domestica) swine weighing 25-35 kg were acquired from ABI farms (Donsboro, Pa.). Feed was withheld 12 hours before surgery. Prior to surgery, animals were sedated and anesthesia induced with intramuscular ketamine hydrochloride (12-20 mg/kg of weight) and xylazine (2.2 mg/kg of weight) as well as atropine sulfate (0.05 mg/kg of weight) to decrease tracheal secretions. Mask ventilation with Isoflurane (5.0%) was used to facilitate endotracheal intubation. Pigs were ventilated (Ohmeda 7800 series ventilator, Datex, Madison, Wis.) at 12-15 breaths/min and tidal volume 10 mL/kg. Anesthesia was maintained with Isoflurane (1.5-2.5%) in 21-25% O2.
Following adequate anesthesia the right external and internal jugular veins and carotid artery were isolated. A 9Fr dual-lumen, tunneled Hickman catheter was placed in the external jugular vein for drug infusion and blood collection during the survival period. […] Rectal temperature was monitored continuously. […]
All animal groups underwent a standardized liver injury and resuscitation protocol. […] Bleeding was spontaneous and removed continually via suction and quantified by weight. […]
After a total of 2 hours, the pre-hospital phase was completed and hospital arrival was simulated. […] The abdomen was reopened, residual blood suctioned, sponges collected, and blood loss quantified by weight. […]

[3] = system: immune-related genes in liver tissue; assay: QRT-PCR gene transcript expression in liver tissue at necropsy; details: FTY720 n=7 vs control n=5
IRI = details: various animal models; cited from earlier work
[4] = system: lung tissue neutrophils (MPO+); assay: MPO immunohistochemistry of lung tissue at necropsy; assay type: in vivo, Yorkshire (Sus scrofa domestica) swine; details: FTY720 0.3 mg/kg
Method: Immunohistochemical detection of MPO was performed on sections of formalin fixed, paraffin embedded blocks of swine lung. Antigen retrieval was performed using Proteinase K (DAKO, Carpenteria Calif.) for 30 minutes. Polyclonal rabbit, anti-human MPO (DAKO, Carpenteria Calif.) was used at a ready to use dilution and incubated at room temperature for 30 minutes. Envision, anti-rabbit (DAKO, Carpenteria Calif.) was applied as a secondary antibody for 30 minutes at room temperature. The chromogen applied was 3,3′ Diaminobenzidine (DAKO, Carpenteria, Calif.) for 10 minutes. The sections were counterstained with Hematoxylin (DAKO, Carpenteria, Calif.). External negative control was processed identically as with MPO but the primary antibody was substituted with normal rabbit serum. […] Cells with appropriate nuclear morphology and the presence of light to intensely reactive granules were counted; 5 random 40× fields were assessed.
Immunohistochemical detection of MPO was performed on sections of formalin fixed, paraffin embedded blocks of lung tissue. […] Polyclonal rabbit, anti-human MPO (DAKO, Carpenteria Calif.) was used at a ready to use dilution and incubated at room temperature for 30 minutes. […] Cells with appropriate nuclear morphology and the presence of light to intensely reactive granules were counted; 5 random 40× fields were assessed.

In the case of `CCCCCCCCc1ccc(CCC(N)(CO)CO)cc1` [FTY720], the adhesion molecules expression (renal transplant IRI) is given as “no change”, the intragraft neutrophil infiltration (renal transplant IRI) is given as “reduced” and the renal function (renal transplant IRI) is given as “improved renal function”. For the same compound, the “peripheral neutrophil response vs control” value (peripheral neutrophils) was “attenuated”, the “central lymphocyte sequestration (CD3 staining) vs control” value [1] was “significant central lymphocyte sequestration” and the “reperfusion period survival vs control” value [2] was “statistically improved”. For the same compound, the “overall survival vs control” value ([2]; 72 hours) was “improved compared to control although not statistically significant”, the “BCL-2 transcript expression in liver vs control” value [3] was “up-regulated” and the “FAS transcript expression in liver vs control” value [3] was “down regulated”. For the same compound, the “HSP70 transcript expression in liver vs control” value [3] was “down-regulated”, the “INOS transcript expression in liver vs control” value [3] was “down-regulated” and the “NFκB transcript expression in liver vs control” value [3] was “down-regulated”. For the same compound, the “VCAM transcript expression in liver vs control” value [3] was “down-regulated”, the “effect on IRI” value (IRI) was “ameliorate IRI” and the “lung tissue neutrophils vs control” value [4] was “significantly decreased”.
